The values below come from patent publication US7772180B2, “Hepatitis C virus inhibitors” (Bristol-Myers Squibb Company, priority 2006, dated 2010).

In assay [1] the test system is HCV replicon (strain 1b) in HUH-7 cells. Briefly: HCV replicon FRET assay. Format: cell-based, Hepatitis C virus. In general terms: In antiviral work, replicon cells carry a viral genome segment that copies itself.
Assay [2] concerns the target T1, HCV NS3/4A protease complex, BMS strain (UniProt P27958, species not given/STRAIN_BMS).
T1 construct: other: NS3/4A BMS strain; activity range class; numeric values, unit not given; said of H77 and J4L6S; fused on or other part: A three-lysine solubilising tail at the C-terminus of NS4A; A His tag is implied by the pET21b vector and Ni-NTA purification; Both are printed for the H77 and J4L6S constructs and apply to BMS by inference
The assay can be described thus: FRET peptide assay to monitor HCV NS3/4A proteolytic activity (BMS strain). Format: biochemical, Hepatitis C virus (genotype 1a). As to conditions: read-out: HCV Protease (IC50), NS3/4A BMS strain. In a few lines:
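Purified recombinant NS3/4A complex from genotype 1a BMS strain, 2-3 nM final, with RET S1 EDANS/DABCYL depsipeptide substrate at 2 μM final in HEPES pH 7.5, NaCl, Triton, glycerol, βME. Cleavage followed in real time by fluorescence. For high-potency compounds: 50 μg/ml BSA added, protease lowered to 300 pM.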

[3] abbreviates: Hepatitis C virus, Huh-7, read-out: HCV Pro Replicon (EC50), HCV replicon cell assay, activity range class.
[4] abbreviates: read-out: HCV Pro Replicon (EC50), HCV replicon cell assay, activity range class.
Setting [5] is: Hepatitis C virus, Huh-7, read-out: HCV Pro Replicon (EC50), HCV replicon cell assay, numeric values, unit inferred.

For orientation: EC50 means the concentration needed to bring the measured effect to its halfway point. The term IC50 denotes the concentration that inhibits the measured activity by half.

Read-outs that look alike come from different tables or passages of the source.

T1 sequence (P27958 1027-1657, change not shown, one chain of several): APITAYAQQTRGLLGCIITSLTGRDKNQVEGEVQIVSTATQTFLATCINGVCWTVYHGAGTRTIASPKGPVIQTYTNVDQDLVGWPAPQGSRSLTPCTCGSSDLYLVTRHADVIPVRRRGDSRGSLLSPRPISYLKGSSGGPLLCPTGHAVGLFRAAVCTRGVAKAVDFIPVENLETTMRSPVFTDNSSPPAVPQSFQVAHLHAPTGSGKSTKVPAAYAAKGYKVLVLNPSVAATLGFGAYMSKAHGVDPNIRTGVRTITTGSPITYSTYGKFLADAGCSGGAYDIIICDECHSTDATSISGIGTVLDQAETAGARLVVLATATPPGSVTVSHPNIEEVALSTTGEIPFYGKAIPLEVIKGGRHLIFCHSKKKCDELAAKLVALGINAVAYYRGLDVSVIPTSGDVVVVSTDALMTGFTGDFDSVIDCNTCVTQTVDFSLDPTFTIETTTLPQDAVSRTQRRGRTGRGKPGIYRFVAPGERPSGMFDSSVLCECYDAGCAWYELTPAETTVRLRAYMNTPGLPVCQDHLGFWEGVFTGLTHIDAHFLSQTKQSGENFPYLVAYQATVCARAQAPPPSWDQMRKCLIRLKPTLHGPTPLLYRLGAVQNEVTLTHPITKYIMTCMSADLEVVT

For `C=C[C@@H]1C[C@]1(NC(=O)[C@@H]1C[C@@H](Oc2ncc(OC)c3ccc(Cl)cc23)CN1C(=O)C(Nc1cc(C)nc(C)c1)C(C)(C)C)C(=O)NS(=O)(=O)C1CC1` (single isomer, unassigned) [Compound 29A], in assay [1] (setting [3]), the EC50 was 100 to 1000 nM. Moreover, the IC50 in assay [2] (activity range class) was 0.6 to 20 nM.

On to `C=C[C@@H]1C[C@]1(NC(=O)[C@@H]1C[C@@H](Oc2ncc(OC)c3ccc(Cl)cc23)CN1C(=O)C(Nc1ccc(OC)nc1)C(C)(C)C)C(=O)NS(=O)(=O)C1CC1` (single isomer, unassigned) [408 first isomer], for which, in assay [1] (setting [4]), the concentration giving a half-maximal response (EC50) was in the range of 3 to 100 nM. The IC50 in assay [2] (activity range class) was 0.6 to 20 nM.

Take `C=C[C@@H]1C[C@]1(NC(=O)[C@@H]1C[C@@H](Oc2nccc3cc(OC)ccc23)CN1C(=O)[C@H](Nc1cc(C)cc(C)n1)C(C)C)C(=O)NS(=O)(=O)C1CC1` [Compound 1B, N-(4,6-dimethyl-2-pyridinyl)-D-valyl-(4R)—N-((1R,2S)-1-((cyclopropylsulfonyl)carbamoyl)-2-vinylcyclopropyl)-4-((6-methoxy-1-isoquinolinyl)oxy)-L-prolinamide]: in assay [1] (setting [5]), the concentration giving a half-maximal response (EC50) turned out to be 1640 nM. The IC50 in assay [2] (numeric values, unit inferred) was 289 nM.

`C=C[C@@H]1C[C@]1(NC(=O)[C@@H]1C[C@@H](Oc2nccc3cc(OC)ccc23)CN1C(=O)[C@@H](Nc1ccccc1)C(C)(C)C)C(=O)NS(=O)(=O)C1CC1` [15 first isomer, 3-methyl-N-phenyl-L-valyl-(4R)—N-((1R,2S)-1-((cyclopropylsulfonyl)carbamoyl)-2-vinylcyclopropyl)-4-((6-methoxy-1-isoquinolinyl)oxy)-L-prolinamide]: the half-maximal effective concentration (EC50) in assay [1] (setting [3]) was 3 to 100 nM. In addition, the IC50 in assay [2] (activity range class) is 0.6 to 20 nM.

Regarding `C=C[C@@H]1C[C@]1(NC(=O)[C@@H]1C[C@@H](Oc2nccc3cc(OC)ccc23)CN1C(=O)[C@@H](Nc1nc(OC)nc(OC)n1)C(C)(C)C)C(=O)NS(=O)(=O)C1CC1` [Compound 3, N-(4,6-dimethoxy-1,3,5-triazin-2-yl)-3-methyl-L-valyl-(4R)—N-((1R,2S)-1-((cyclopropylsulfonyl)carbamoyl)-2-vinylcyclopropyl)-4-((6-methoxy-1-isoquinolinyl)oxy)-L-prolinamide], the EC50 in assay [1] (setting [3]) is over 1000 nM. In addition, the IC50 in assay [2] (activity range class) lay within 0.6 to 20 nM.

As for `C=C[C@@H]1C[C@]1(NC(=O)[C@@H]1C[C@@H](Oc2nccc3cc(OC)ccc23)CN1C(=O)[C@@H](Nc1ccccn1)C(C)(C)C)C(=O)NS(=O)(=O)C1CC1` [12 first isomer, 3-methyl-N-2-pyridinyl-L-valyl-(4R)—N-((1R,2S)-1-((cyclopropylsulfonyl)carbamoyl)-2-vinylcyclopropyl)-4-((6-methoxy-1-isoquinolinyl)oxy)-L-prolinamide], in assay [1] (setting [3]), the half-maximal effective concentration (EC50) was in the range of 3 to 100 nM. Besides, the half-maximal inhibitory concentration (IC50) in assay [2] (activity range class) fell in the range of 0.6 to 20 nM.

For the compound `C=C[C@@H]1C[C@]1(NC(=O)[C@@H]1C[C@@H](Oc2ncc(OC)c3ccc(Cl)cc23)CN1C(=O)[C@@H](Nc1cccc(C(=O)NC(C)(C)C)c1)C(C)(C)C)C(=O)NS(=O)(=O)C1CC1` [212 first isomer, N-(3-(tert-butylcarbamoyl)phenyl)-3-methyl-L-valyl-(4R)-4-((7-chloro-4-methoxy-1-isoquinolinyl)oxy)-N-((1R,2S)-1-((cyclopropylsulfonyl)carbamoyl)-2-vinylcyclopropyl)-L-prolinamide], the EC50 in assay [1] (setting [3]) was 100 to 1000 nM. In addition, the 50% inhibitory concentration (IC50) in assay [2] (activity range class) was over 200 nM.

As to `C=C[C@@H]1C[C@]1(NC(=O)[C@@H]1C[C@@H](Oc2ncc(OC)c3ccc(Cl)cc23)CN1C(=O)C(Nc1cccc(C#N)c1)C(C)(C)C)C(=O)NS(=O)(=O)C1CC1` (some centres unmarked) [Compound 203A], in assay [1] (setting [5]), the EC50 turned out to be 1.54 nM. In addition, the IC50 in assay [2] (numeric values, unit inferred) is 4 nM.

For the compound `C=C[C@@H]1C[C@]1(NC(=O)[C@@H]1C[C@@H](Oc2ncc(OC)c3ccc(Cl)cc23)CN1C(=O)C(Nc1cncnc1)C(C)C)C(=O)NS(=O)(=O)C1CC1` (single isomer, unassigned) [24 second isomer], the EC50 in assay [1] (setting [3]) is over 1000 nM. Besides, the 50% inhibitory concentration (IC50) in assay [2] (activity range class) is over 200 nM.

For the compound `C=C[C@@H]1C[C@]1(NC(=O)[C@@H]1C[C@@H](Oc2nc(N(C)C)cc3cc(OC)ccc23)CN1C(=O)C(Nc1ccccc1)C(C)(C)C)C(=O)NS(=O)(=O)C1CC1` (single isomer, unassigned) [19 first isomer], the EC50 in assay [1] (setting [3]) lay within 3 to 100 nM. Moreover, the IC50 in assay [2] (activity range class) was 0.6 to 20 nM.

With `C=C[C@@H]1C[C@]1(NC(=O)[C@@H]1C[C@@H](Oc2ncc(OC)c3ccc(Cl)cc23)CN1C(=O)C(Nc1cccc(OC)c1)C(C)(C)C)C(=O)NS(=O)(=O)C1CC1` (single isomer, unassigned) [Compound 201A], in assay [1] (setting [5]), the EC50 turned out to be 4.23 nM. Moreover, the IC50 in assay [2] (numeric values, unit inferred) is 4 nM.

Regarding `C=C[C@@H]1C[C@]1(NC(=O)[C@@H]1C[C@@H](Oc2nc(OC)cc3cc(OC)ccc23)CN1C(=O)C(Nc1cc(C)cc(C)n1)C(C)C)C(=O)NS(=O)(=O)C1CC1` (stereo partly drawn) [Compound 21, N-(4,6-dimethyl-2-pyridinyl)valyl-(4R)—N-((1R,2S)-1-((cyclopropylsulfonyl)carbamoyl)-2-vinylcyclopropyl)-4-((3,6-dimethoxy-1-isoquinolinyl)oxy)-L-prolinamide], in assay [1] (setting [3]), the concentration for a half-maximal effect (EC50) lay in the range of 3 to 100 nM. In addition, in assay [2] (activity range class), the IC50 is 0.6 to 20 nM.

In the case of `C=C[C@@H]1C[C@]1(NC(=O)[C@@H]1C[C@@H](Oc2ncc(OC)c3ccc(Cl)cc23)CN1C(=O)[C@H](CC)Nc1nsnc1OCC)C(=O)NS(=O)(=O)C1CC1` [Compound 233A, (4R)-4-((7-chloro-4-methoxy-1-isoquinolinyl)oxy)-N-((1R,2S)-1-((cyclopropylsulfonyl)carbamoyl)-2-vinylcyclopropyl)-1-((2S)-2-((4-ethoxy-1,2,5-thiadiazol-3-yl)amino)butanoyl)-L-prolinamide], the EC50 in assay [1] (setting [3]) fell in the range of 100 to 1000 nM. In assay [2] (activity range class), the IC50 was 20 to 200 nM.

In the case of `C=C[C@@H]1C[C@]1(NC(=O)[C@@H]1C[C@@H](Oc2nccc3cc(OC)ccc23)CN1C(=O)[C@@H](NC1=NCCCS1)C(C)(C)C)C(=O)NS(=O)(=O)C1CC1` [Compound 36, N-(5,6-dihydro-4H-1,3-thiazin-2-yl)-3-methyl-L-valyl-(4R)—N-((1R,2S)-1-((cyclopropylsulfonyl)carbamoyl)-2-vinylcyclopropyl)-4-((6-methoxy-1-isoquinolinyl)oxy)-L-prolinamide], the concentration giving a half-maximal response (EC50) in assay [1] (setting [5]) worked out at 1420 nM. Besides, the IC50 in assay [2] (numeric values, unit inferred) was found to be 73 nM.

As to `C=C[C@@H]1C[C@]1(NC(=O)[C@@H]1C[C@@H](Oc2ncc(OC)c3ccc(Cl)cc23)CN1C(=O)C(Nc1cncnc1)C(C)C)C(=O)NS(=O)(=O)C1CC1` (single isomer, unassigned) [Compound 24A], the EC50 in assay [1] (setting [5]) is 593 nM. Further, the concentration for half-maximal inhibition (IC50) in assay [2] (numeric values, unit inferred) came to 26 nM.

On to `C=CC1CC1(NC(=O)C1CC(Oc2ncc(OC)c3ccc(Cl)cc23)CN1C(=O)C(Nc1ccccc1)C(C)(C)C)C(=O)NS(=O)(=O)C1CC1` (single isomer, unassigned; isomer 3) [213 second isomer], for which the concentration giving a half-maximal response (EC50) in assay [1] (setting [4]) lay within 3 to 100 nM. Besides, in assay [2] (activity range class), the IC50 lay in the range of 0.6 to 20 nM.

In the case of `C=C[C@@H]1C[C@]1(NC(=O)[C@@H]1C[C@@H](Oc2ncc(OC)c3ccc(Cl)cc23)CN1C(=O)[C@H](Nc1cccc(C(=O)O)c1)C(C)(C)C)C(=O)NS(=O)(=O)C1CC1` [211 second isomer, N-(3-carboxyphenyl)-3-methyl-D-valyl-(4R)-4-((7-chloro-4-methoxy-1-isoquinolinyl)oxy)-N-((1R,2S)-1-((cyclopropylsulfonyl)carbamoyl)-2-vinylcyclopropyl)-L-prolinamide], the EC50 in assay [1] (setting [3]) was 3 to 100 nM. For the same compound, in assay [2] (activity range class), the IC50 is over 200 nM.

`C=C[C@@H]1C[C@]1(NC(=O)[C@@H]1C[C@@H](Oc2ncc(OC)c3ccc(Cl)cc23)CN1C(=O)C(Nc1cc(Cl)cc(Cl)n1)C(C)(C)C)C(=O)NS(=O)(=O)C1CC1` (single isomer, unassigned) [Compound 32A]: the EC50 in assay [1] (setting [5]) came to 3.59 nM. In addition, in assay [2] (numeric values, unit inferred), the concentration for half-maximal inhibition (IC50) was 1 nM.

As for `C=C[C@@H]1C[C@]1(NC(=O)[C@@H]1C[C@@H](Oc2ncc(OC)c3ccc(Cl)cc23)CN1C(=O)C(Nc1cccc(OC)c1)C(C)(C)C)C(=O)NS(=O)(=O)C1CC1` (single isomer, unassigned) [Compound 201B], in assay [1] (setting [3]), the EC50 was 3 to 100 nM. For the same compound, the IC50 in assay [2] (activity range class) is 20 to 200 nM.

On to `C=C[C@@H]1C[C@]1(NC(=O)[C@@H]1C[C@@H](Oc2nccc3cc(OC)ccc23)CN1C(=O)[C@@H](Nc1nc(CC)cs1)C(C)(C)C)C(=O)NS(=O)(=O)C1CC1` [Compound 35, N-(4-ethyl-1,3-thiazol-2-yl)-3-methyl-L-valyl-(4R)—N-((1R,2S)-1-((cyclopropylsulfonyl)carbamoyl)-2-vinylcyclopropyl)-4-((6-methoxy-1-isoquinolinyl)oxy)-L-prolinamide], for which the EC50 in assay [1] (setting [3]) was in the range of 3 to 100 nM. The IC50 in assay [2] (activity range class) lay in the range of 0.6 to 20 nM.

As for `C=C[C@@H]1C[C@]1(NC(=O)[C@@H]1C[C@@H](Oc2ncc(OC)c3ccc(Cl)cc23)CN1C(=O)[C@H](Nc1cccc(S(N)(=O)=O)c1)C(C)(C)C)C(=O)NS(=O)(=O)C1CC1` [207 second isomer, 3-methyl-N-(3-sulfamoylphenyl)-D-valyl-(4R)-4-((7-chloro-4-methoxy-1-isoquinolinyl)oxy)-N-((1R,2S)-1-((cyclopropylsulfonyl)carbamoyl)-2-vinylcyclopropyl)-L-prolinamide], the EC50 in assay [1] (setting [3]) was over 1000 nM. Further, the IC50 in assay [2] (activity range class) is over 200 nM.

`C=C[C@@H]1C[C@]1(NC(=O)[C@@H]1C[C@@H](Oc2ncc(OC)c3ccc(Cl)cc23)CN1C(=O)C(Nc1cc(C)cc(C)n1)C(C)(C)C)C(=O)NS(=O)(=O)C1CC1` (single isomer, unassigned) [22 second isomer]: in assay [1] (setting [4]), the half-maximal effective concentration (EC50) was in the range of 100 to 1000 nM. The IC50 in assay [2] (activity range class) lay in the range of 0.6 to 20 nM.
